One assay has as its target T1, BRD4 BD1 (Homo sapiens, UniProt O60885).
T1 construct: made in house
In words: AlphaScreen binding assay, BRD4 Bromodomain 1. A digest of the protocol: (§1)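 An AlphaScreen competition format was used with His-BRD4 BD1 or BD2 and biotin-H4 K5/8/12/16-acetyl peptide, each at matched final levels of 50 nM (BD1) or 100 nM (BD2). Incubation in HEPES/NaCl buffer with 0.1% BSA and 0.01% Triton X-100 ran ≥1 h before IC50 determination.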
In general terms: Alpha assays give light when donor and acceptor beads are brought close together.

Another assay has as its target T2, BRD4 BD2 (Homo sapiens, UniProt O60885).
T2 construct: made in house
In words: AlphaScreen binding assay, BRD4 Bromodomain 2. An outline of the steps: as §1

For the next assay, the system named is MV4-11 cells. In words: Oncology cell growth assay (3-day proliferation, CellTiter-Glo). It counts as cell-based. The note with it: Homo sapiens, MV4-11, 72 h, AML cell line MV4-11, 72 hours, compounds grouped by IC50 range, read-out: MV4-11 IC50 (inhibition of proliferation, gIC50). An outline of the steps: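 MV4-11 AML cells (RPMI 1640, 10% FBS) plated at 3000 cells/well and exposed 72 h to compound at final 10 to 0.0045 μM (3-fold series). Viability read by CellTiter-Glo luminescence; gIC50 from four-parameter logistic fit between DMSO control and no-cell background.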

With `COc1ccc(-c2ccc3c(c2)N(C(=O)C2CC2)C[C@H](C)N3C(C)=O)cc1NS(C)(=O)=O` [Example I-1139], the results for the IC50 at BRD4 BD1, at BRD4 BD2 and in the assay on MV4-11 cells were 1 to 10 µM, 0.05 to 0.5 µM and 0.1 to 0.5 µM, respectively.
For `COC(=O)N1c2ccc(-c3cnn(CC4CCOCC4)c3)cc2N(C(=O)OC(C)C)C[C@@H]1C` [Example I-641] the same measures were 0.1 to 1 µM, 0.05 to 0.5 µM and 0.1 to 0.5 µM.
In the case of `CC(=O)N1c2ccc(-c3cnn(CCO)c3)cc2N(c2nn(C)c3c(F)cccc23)C[C@@H]1C` [Example I-180, 1-[(2S)-4-(7-fluoro-1-methyl-1H-indazol-3-yl)-6-[1-(2-hydroxyethyl)-1H-pyrazol-4-yl]-2-methyl-1,2,3,4-tetrahydroquinoxalin-1-yl]ethan-1-one], the IC50 at BRD4 BD1 was 1 to 10 µM; at BRD4 BD2 it was less than 0.05 µM; with MV4-11 cells, 0.1 to 0.5 µM.
For `CC(=O)N1c2ccc(-c3cnn(CCCO)c3)cc2N(C(=O)OC(C)C)C[C@@H]1C` [Example I-137, (S)-isopropyl 4-acetyl-7-(1-(3-hydroxypropyl)-1H-pyrazol-4-yl)-3-methyl-3,4-dihydroquinoxaline-1(2H)-carboxylate] the same measures were 0.1 to 1 µM, 0.05 to 0.5 µM and 0.1 to 0.5 µM.
As for `CC(=O)N1c2ccc(-c3cnn(C4COC4)c3)cc2N(C(=O)C2(C)CC2)C[C@@H]1C` [Example I-114, (S)-1-(2-methyl-4-(1-methylcyclopropanecarbonyl)-6-(1-(oxetan-3-yl)-1H-pyrazol-4-yl)-3,4-dihydroquinoxalin-1(2H)-yl)ethanone], the IC50 at BRD4 BD1 is greater than 10 µM; on BRD4 BD2 it was 0.05 to 0.5 µM; in the assay on MV4-11 cells, greater than 0.5 µM.
Taken in the same sequence, the figures for `CC(=O)N1c2ccc(-c3cc(Cl)cc(S(C)(=O)=O)c3)cc2N(C(=O)C2CCC2)C[C@@H]1C` [Example I-1095] were 1 to 10 µM, greater than 0.5 µM and greater than 0.5 µM.
Regarding `CCOC(=O)N1C[C@H](C)N(C(C)=O)c2ccc(-c3cc(Cl)cc(S(C)(=O)=O)c3)cc21` [Example I-1096], the IC50 on BRD4 BD1 was 1 to 10 µM; at BRD4 BD2, greater than 0.5 µM; with MV4-11 cells it was greater than 0.5 µM.
Consider `CC(C)OC(=O)N1C[C@H](C)N(C(=O)C2CC2)c2ccc(-c3cnn(C[C@@H]4CCNC4)c3)cc21` [Example I-689], for which the IC50 at BRD4 BD1 is 0.1 to 1 µM; at BRD4 BD2, 0.05 to 0.5 µM; in the assay on MV4-11 cells it was greater than 0.5 µM.
For `CC(=O)N1c2ccc(-c3cnn(CC(=O)N(C)C4CC4)c3)cc2N(C(=O)OC(C)C)C[C@@H]1C` [Example I-596] the same measures were 0.1 to 1 µM, less than 0.05 µM and 0.1 to 0.5 µM.
For `CC(=O)N1c2ccc(-c3ccc(S(=O)(=O)N4CCN(C)CC4)cc3)cc2N(C(=O)c2ccco2)C[C@@H]1C` [Example I-278] the same measures were 1 to 10 µM, less than 0.05 µM and 0.1 to 0.5 µM.
Taken in the same sequence, the figures for `CC(=O)N1c2ccc(-c3cnn(C4CC4)c3)cc2N(C(=O)OC2CCC2)C[C@@H]1C` [Example I-1003] were less than 0.1 µM, 0.05 to 0.5 µM and less than 0.1 µM.
Consider `CC(=O)N1c2ccc(-c3ccc(C)s3)cc2N(C(=O)c2ccco2)C[C@@H]1C` [Example I-872], for which the results for the IC50 at BRD4 BD1, at BRD4 BD2 and in the assay with MV4-11 cells were 0.1 to 1 µM, less than 0.05 µM and 0.1 to 0.5 µM, respectively.
In the case of `CC(=O)N1c2ccc(-c3cnn(C(C)(C)CO)c3)cc2N(C(=O)Oc2cccnc2)C[C@@H]1C` [Example I-1284], the values for the IC50 at BRD4 BD1, at BRD4 BD2 and with MV4-11 cells were 0.1 to 1 µM, 0.05 to 0.5 µM and 0.1 to 0.5 µM, respectively.
Taken in the same sequence, the figures for `COC(=O)N1c2ccc(-c3cnn(CCN4CCCS4(=O)=O)c3)cc2N(C(=O)OC(C)C)C[C@@H]1C` [Example I-626] were 0.1 to 1 µM, 0.05 to 0.5 µM and greater than 0.5 µM.
Take `CC(=O)N1c2ccc(-c3ccc4c(c3)CCN4S(C)(=O)=O)cc2N(C(=O)c2ccco2)C[C@@H]1C` [Example I-299]: the IC50 was 0.1 to 1 µM at BRD4 BD1, 0.05 to 0.5 µM at BRD4 BD2 and 0.1 to 0.5 µM with MV4-11 cells.
Regarding `COc1cc(Cl)ccc1OC(=O)N1C[C@H](C)N(C(C)=O)c2ccc(-c3cnn(C4CC4)c3)cc21` [Example I-529], the IC50 at BRD4 BD1 was 0.1 to 1 µM; at BRD4 BD2, less than 0.05 µM; with MV4-11 cells it was less than 0.1 µM.
Taken in the same sequence, the figures for `CC(=O)N1c2ccc(-c3cnn(C4COC4)c3)cc2N(C(=O)C2CC2)C[C@@H]1C` [Example I-10, (S)-1-(4-(cyclopropanecarbonyl)-2-methyl-6-(1-(oxetan-3-yl)-1H-pyrazol-4-yl)-3,4-dihydroquinoxalin-1(2H)-yl)ethanone] were 0.1 to 1 µM, 0.05 to 0.5 µM and 0.1 to 0.5 µM.
For `CC(=O)N1c2ccc(-c3ccc4c(ccn4C)c3)cc2N(C(=O)c2ccco2)C[C@@H]1C` [Example I-796] the same measures were 0.1 to 1 µM, less than 0.05 µM and 0.1 to 0.5 µM.
For `CC(=O)N1c2ccc(-c3cnn(CC(C)C)c3)cc2N(C(=O)C2CC2)CC1C` (stereo not drawn) [Example I-670] the same measures were 0.1 to 1 µM, 0.05 to 0.5 µM and 0.1 to 0.5 µM.
On to `CC(=O)N1c2ccc(-c3cccc(-c4ccccc4)c3)cc2N(C(=O)c2ccco2)C[C@@H]1C` [Example I-793], for which the IC50 is 1 to 10 µM on BRD4 BD1, 0.05 to 0.5 µM on BRD4 BD2 and greater than 0.5 µM in the assay on MV4-11 cells.
Taken in the same sequence, the figures for `COC(=O)N1c2ccc(-c3cnn(C4CC4)c3)cc2N(C(=O)Oc2ccccn2)C[C@@H]1C` [Example I-1323] were 0.1 to 1 µM, less than 0.05 µM and 0.1 to 0.5 µM.
Taken in the same sequence, the figures for `CCOC(=O)N1C[C@H](C)N(C(C)=O)c2ccc(-c3cccc(NS(C)(=O)=O)c3)cc21` [Example I-1045] were 1 to 10 µM, 0.05 to 0.5 µM and greater than 0.5 µM.
Taken in the same sequence, the figures for `CC(=O)N1c2ccc(-c3cnn(C4CC4)c3)cc2N(C(=O)Oc2ccc(C)nc2)C[C@@H]1C` [Example I-511] were less than 0.1 µM, less than 0.05 µM and 0.1 to 0.5 µM.
On to `CC(=O)N1c2ccc(-c3cnn(C4CC4)c3)cc2N(C(=O)OCC(F)(F)F)C[C@@H]1C` [Example I-79, (S)-2,2,2-trifluoroethyl 4-acetyl-7-(1-cyclopropyl-1H-pyrazol-4-yl)-3-methyl-3,4-dihydroquinoxaline-1(2H)-carboxylate], for which the IC50 at BRD4 BD1 was in the range of 0.1 to 1 µM; at BRD4 BD2, 0.05 to 0.5 µM; in the assay on MV4-11 cells, 0.1 to 0.5 µM.
Taken in the same sequence, the figures for `COC(=O)N1c2ccc(-c3cnn(Cc4cnccn4)c3)cc2N(C(=O)OC(C)C)C[C@@H]1C` [Example I-633] were 0.1 to 1 µM, 0.05 to 0.5 µM and 0.1 to 0.5 µM.
Taken in the same sequence, the figures for `CC(=O)N1c2ccc(-c3cnn(CCO)c3)cc2N(C(=O)OC(CF)CF)C[C@@H]1C` [Example I-83, (S)-1,3-difluoropropan-2-yl 4-acetyl-7-(1-(2-hydroxyethyl)-1H-pyrazol-4-yl)-3-methyl-3,4-dihydroquinoxaline-1 (2H)-carboxylate] were 0.1 to 1 µM, 0.05 to 0.5 µM and greater than 0.5 µM.
Taken in the same sequence, the figures for `COC(=O)N1c2ccc(-c3cnn(CCN4CCCC4=O)c3)cc2N(C(=O)OC(C)C)C[C@@H]1C` [Example I-628] were 0.1 to 1 µM, 0.05 to 0.5 µM and 0.1 to 0.5 µM.
For `CC(=O)N1c2ccc(-c3cnn(Cc4ncccn4)c3)cc2N(C(=O)C2CC2)C[C@@H]1C` [Example I-126, (S)-1-(4-(cyclopropanecarbonyl)-2-methyl-6-(1-(pyrimidin-2-ylmethyl)-1H-pyrazol-4-yl)-3,4-dihydroquinoxalin-1(2H)-yl)ethanone], the IC50 at BRD4 BD1 is 1 to 10 µM; at BRD4 BD2 it was less than 0.05 µM; with MV4-11 cells, greater than 0.5 µM.
For `COC(=O)c1ccc(OC(=O)N2C[C@H](C)N(C(C)=O)c3ccc(-c4ccc(S(C)(=O)=O)cc4)cc32)cc1` [Example I-229] the same measures were 0.1 to 1 µM, less than 0.05 µM and less than 0.1 µM.
Taken in the same sequence, the figures for `CC(=O)N1c2ccc(-c3cnn(C4CC4)c3)cc2N(C(=O)Oc2ccccc2)C[C@@H]1C` [Example I-256] were 0.1 to 1 µM, less than 0.05 µM and less than 0.1 µM.
As for `CC(=O)N1c2ccc(-c3cnn(CC4CC4)c3)cc2N(C(=O)OC(C)C)C[C@@H]1C` [Example I-308], the IC50 on BRD4 BD1 was in the range of 0.1 to 1 µM; at BRD4 BD2, 0.05 to 0.5 µM; in the assay on MV4-11 cells it was 0.1 to 0.5 µM.
For `CC(=O)N1c2ccc(-c3ccc(S(=O)(=O)CC4CC4)cc3)cc2N(C(=O)OC2CCOCC2)C[C@@H]1C` [Example I-1238] the same measures were 0.1 to 1 µM, 0.05 to 0.5 µM and greater than 0.5 µM.
For `CC(=O)N1c2ccc(-c3ccc(N4CCCS4(=O)=O)cc3)cc2N(C(=O)OC2CCC(F)(F)CC2)C[C@@H]1C` [Example I-36, 4,4-difluorocyclohexyl (3S)-4-acetyl-7-[4-(1,1-dioxo-1λ^6,2-thiazolidin-2-yl)phenyl]-3-methyl-1,2,3,4-tetrahydroquinoxaline-1-carboxylate] the same measures were 1 to 10 µM, 0.05 to 0.5 µM and 0.1 to 0.5 µM.
Regarding `CC(C)OC(=O)N1C[C@H](C)N(C(=O)C2CC2)c2ccc(-c3cnn(C(C)(C)C)c3)cc21` [Example I-331], the IC50 on BRD4 BD1 is 0.1 to 1 µM; on BRD4 BD2, greater than 0.5 µM; in the assay with MV4-11 cells, greater than 0.5 µM.

These data come from patent US10703764B2, “Benzopiperazine compositions as BET bromodomain inhibitors” (FORMA Therapeutics, Inc., priority 2013, dated 2020).
